{"source": "patent US20090093423A2", "about": "“NOVEL 2-SUBSTITUTED METHYL PENAM DERIVATIVES” (Orchid Chemicals and Pharmaceuticals Limited, priority 2006, published 2009)", "key": {"E. coli BAA-196 (TEM-10)": {"test_system": "E. coli BAA-196 (TEM-10)", "experiment": "MIC, Agar Dilution Method, ESBL producing ATCC isolate", "type": "cell-based", "description": "(§1) The novel compounds were tested for the in vitro antibacterial activities by the Agar Dilution Method as specified in documents published by NCCLS, now CLSI, USA. (National Committee for Clinical Laboratory Standards (NCCLS). 2003. Approved standard M7-A6. NCCLS, Villanova, Pa.).\n(§2) Tazo was also dissolved in same buffer to get a solution of, e.g., 1 mg/mL. Novel penam derivatives described herein were dissolved in water to get a solution of, e.g., 1 mg/mL.\n(§3) The novel compounds and Tazo were also tested individually. The bacterial inoculum was prepared by picking 3 to 5 well-isolated bacterial colonies with the same morphological appearance from an 18-24 h old culture and adjusting the turbidity of the saline suspension to 0.5 McFarland Turbidity Standard equivalent to a bacterial population of 1.5×10^8 colony forming units (CFU) per mL of suspension. The suspension was diluted 1:10 in saline (i.e. 0.5 mL suspension+4.5 mL saline) to get a bacterial population of 1.5×10^7 CFU/mL as inoculum. […] The inoculated petridishes were incubated at 35° C. in an ambient atmosphere for 16-20 h."}, "E. coli BAA-197 (TEM-12)": {"test_system": "E. coli BAA-197 (TEM-12)", "experiment": "MIC, Agar Dilution Method, ESBL producing ATCC isolate", "type": "cell-based", "description": "as §1, §2, §3"}, "E. coli BAA-198 (TEM-26)": {"test_system": "E. coli BAA-198 (TEM-26)", "experiment": "MIC, Agar Dilution Method, ESBL producing ATCC isolate", "type": "cell-based", "description": "as §1, §2, §3"}, "E. coli BAA-199 (SHV-3)": {"test_system": "E. coli BAA-199 (SHV-3)", "experiment": "MIC, Agar Dilution Method, ESBL producing ATCC isolate", "type": "cell-based", "conditions": "E. coli BAA-199, SHV-3", "description": "as §1, §2, §3"}, "E. coli BAA-200 (SHV-4)": {"test_system": "E. coli BAA-200 (SHV-4)", "experiment": "MIC, Agar Dilution Method, ESBL producing ATCC isolate", "type": "cell-based", "conditions": "E. coli BAA-200, SHV-4", "description": "as §1, §2, §3"}, "E. coli BAA-201 (TEM-3)": {"test_system": "E. coli BAA-201 (TEM-3)", "experiment": "MIC, Agar Dilution Method, ESBL producing ATCC isolate", "type": "cell-based", "description": "as §1, §2, §3"}, "E. coli BAA-202 (SHV-1)": {"test_system": "E. coli BAA-202 (SHV-1)", "experiment": "MIC, Agar Dilution Method, ESBL producing ATCC isolate", "type": "cell-based", "description": "as §1, §2, §3"}, "[1]": {"test_system": "P. mirabilis BAA-663 (TEM-89)", "experiment": "MIC, Agar Dilution Method, ESBL producing ATCC isolate", "type": "cell-based", "description": "as §1, §2, §3"}, "[2]": {"experiment": "Minimum bactericidal studies, broth macrodilution", "type": "cell-based", "description": "Minimum bactericidal studies were performed by broth macrodilution technique as described by NCCLS."}, "E. coli MRO 10006": {"test_system": "E. coli MRO 10006", "experiment": "In vivo efficacy, infected mice", "conditions": "Swiss albino mice infected with E. coli MRO 10006; Piperacillin:inhibitor 4:1; 7-day survival", "description": "(§4) The efficacy studies were performed as described earlier (Kuck et al, 1989, Antimicrob. Agents. Chemother. 33(11): 1964-1969). Briefly, Swiss albino mice, 20+2 g, from in-house breeding facility were challenged by the intraperitoneal injection of bacterial suspensions in 0.5 mL of hog gastric mucin (10 to 100 50% lethal doses). […] All the untreated control animals died within 48 h of infection. In each experiment, in-house Tazo was used as an inhibitor control in four doses. Median (50%) effective dose (ED50) were determined by applying the Reed and Muench's method of the 7-day survival ratios."}, "E. coli MRO 10007": {"test_system": "E. coli MRO 10007", "experiment": "In vivo efficacy, infected mice", "conditions": "Swiss albino mice infected with E. coli MRO 10007; Piperacillin:inhibitor 4:1; 7-day survival", "description": "as §4"}, "K. pneumoniae MRO 11008": {"test_system": "K. pneumoniae MRO 11008", "experiment": "In vivo efficacy, infected mice", "conditions": "Swiss albino mice infected with K. pneumoniae MRO 11008; Piperacillin:inhibitor 4:1; 7-day survival", "description": "as §4"}}, "data": [{"smiles": "C[C@]1(Cn2ccnn2)[C@H](C(=O)O)N2C(=O)C[C@H]2S1(=O)=O", "note": "[Tazo]", "values": [{"measurement": "MIC of Piperacillin with different concentrations of Tazo or compound of Example 1", "setting": "E. coli BAA-196 (TEM-10); inhibitor 1 μg/mL", "value": 64, "unit": "mg/L"}, {"measurement": "MIC of Piperacillin with different concentrations of Tazo or compound of Example 1", "setting": "E. coli BAA-196 (TEM-10); inhibitor 2 μg/mL", "value": 16, "unit": "mg/L"}, {"measurement": "MIC of Piperacillin with different concentrations of Tazo or compound of Example 1", "setting": "E. coli BAA-196 (TEM-10); inhibitor 4 μg/mL", "value": 4, "unit": "mg/L"}, {"measurement": "MIC of Piperacillin with different concentrations of Tazo or compound of Example 1", "setting": "E. coli BAA-197 (TEM-12); inhibitor 1 μg/mL", "value": 64, "unit": "mg/L"}, {"measurement": "MIC of Piperacillin with different concentrations of Tazo or compound of Example 1", "setting": "E. coli BAA-197 (TEM-12); inhibitor 2 μg/mL", "value": 8, "unit": "mg/L"}, {"measurement": "MIC of Piperacillin with different concentrations of Tazo or compound of Example 1", "setting": "E. coli BAA-197 (TEM-12); inhibitor 4 μg/mL", "value": 4, "unit": "mg/L"}, {"measurement": "MIC of Piperacillin with different concentrations of Tazo or compound of Example 1", "setting": "E. coli BAA-198 (TEM-26); inhibitor 1 μg/mL", "value": 4, "unit": "mg/L"}, {"measurement": "MIC of Piperacillin with different concentrations of Tazo or compound of Example 1", "setting": "E. coli BAA-198 (TEM-26); inhibitor 2 μg/mL", "value": 4, "unit": "mg/L"}, {"measurement": "MIC of Piperacillin with different concentrations of Tazo or compound of Example 1", "setting": "E. coli BAA-198 (TEM-26); inhibitor 4 μg/mL", "value": 4, "unit": "mg/L"}, {"measurement": "MIC of Piperacillin with different concentrations of Tazo or compound of Example 1", "setting": "E. coli BAA-199 (SHV-3); inhibitor 1 μg/mL", "value": ">128", "unit": "mg/L"}, {"measurement": "MIC of Piperacillin with different concentrations of Tazo or compound of Example 1", "setting": "E. coli BAA-199 (SHV-3); inhibitor 2 μg/mL", "value": ">128", "unit": "mg/L"}, {"measurement": "MIC of Piperacillin with different concentrations of Tazo or compound of Example 1", "setting": "E. coli BAA-199 (SHV-3); inhibitor 4 μg/mL", "value": ">128", "unit": "mg/L"}, {"measurement": "MIC of Piperacillin with different concentrations of Tazo or compound of Example 1", "setting": "E. coli BAA-200 (SHV-4); inhibitor 1 μg/mL", "value": ">128", "unit": "mg/L"}, {"measurement": "MIC of Piperacillin with different concentrations of Tazo or compound of Example 1", "setting": "E. coli BAA-200 (SHV-4); inhibitor 2 μg/mL", "value": ">128", "unit": "mg/L"}, {"measurement": "MIC of Piperacillin with different concentrations of Tazo or compound of Example 1", "setting": "E. coli BAA-200 (SHV-4); inhibitor 4 μg/mL", "value": 4, "unit": "mg/L"}, {"measurement": "MIC of Piperacillin with different concentrations of Tazo or compound of Example 1", "setting": "E. coli BAA-201 (TEM-3); inhibitor 1 μg/mL", "value": 4, "unit": "mg/L"}, {"measurement": "MIC of Piperacillin with different concentrations of Tazo or compound of Example 1", "setting": "E. coli BAA-201 (TEM-3); inhibitor 2 μg/mL", "value": 4, "unit": "mg/L"}, {"measurement": "MIC of Piperacillin with different concentrations of Tazo or compound of Example 1", "setting": "E. coli BAA-201 (TEM-3); inhibitor 4 μg/mL", "value": 2, "unit": "mg/L"}, {"measurement": "MIC of Piperacillin with different concentrations of Tazo or compound of Example 1", "setting": "E. coli BAA-202 (SHV-1); inhibitor 1 μg/mL", "value": ">128", "unit": "mg/L"}, {"measurement": "MIC of Piperacillin with different concentrations of Tazo or compound of Example 1", "setting": "E. coli BAA-202 (SHV-1); inhibitor 2 μg/mL", "value": ">128", "unit": "mg/L"}, {"measurement": "MIC of Piperacillin with different concentrations of Tazo or compound of Example 1", "setting": "E. coli BAA-202 (SHV-1); inhibitor 4 μg/mL", "value": ">128", "unit": "mg/L"}, {"measurement": "MIC of Piperacillin with different concentrations of Tazo or compound of Example 1", "setting": "[1]; inhibitor 1 μg/mL", "value": 8, "unit": "mg/L"}, {"measurement": "MIC of Piperacillin with different concentrations of Tazo or compound of Example 1", "setting": "[1]; inhibitor 2 μg/mL", "value": 8, "unit": "mg/L"}, {"measurement": "MIC of Piperacillin with different concentrations of Tazo or compound of Example 1", "setting": "[1]; inhibitor 4 μg/mL", "value": 4, "unit": "mg/L"}, {"measurement": "Minimum bactericidal concentration study, Piperacillin in combination with inhibitor", "setting": "[2]", "value": "bacteriostatic"}, {"measurement": "ED50 of Piperacillin in combination with inhibitor", "setting": "E. coli MRO 10006", "value": 37.22, "unit": "mg/kg b.w."}, {"measurement": "ED50 of Piperacillin in combination with inhibitor", "setting": "E. coli MRO 10007", "value": 58.81, "unit": "mg/kg b.w."}, {"measurement": "ED50 of Piperacillin in combination with inhibitor", "setting": "K. pneumoniae MRO 11008", "value": 99.48, "unit": "mg/kg b.w."}]}]}
